Experimental data taken from paper PMC9523973 (Cell reports, 2022).
“Also recorded” adds a separate entry of the source. Read-outs that look alike come from different tables or passages of the source. Values belong to the compound of their own block, whether it stands above or below them.

Columns and labels:
[1] = biological target: human NaV1.7 tamoxifen receptor (Homo sapiens, UniProt Q15858); assay: NaV1.7 tritium-labeled tamoxifen competitive binding assay; settings: competition with H^3-Tam
human NaV1.7 = human NaV1.7 (Homo sapiens, UniProt Q15858); assay: Voltage clamp of expressed WT NaV1.7 INa
[2] = test system: endogenously expressed NaVs in cultured DRG neurons; assay: Whole cell voltage clamp of sodium current; type: cell-based, mouse; settings: for IC50: read-out: IC50 of DRG INa inhibition
[3] = test system: knee hyperalgesia in mice after DMM surgery; assay: In vivo osteoarthritis pain model; design: species or system mouse; settings: for knee hyperalgesia vs vehicle, 30 minutes after injection / knee withdrawal threshold vs vehicle through 3 hours: 50 μM intra-articular in 0.1% DMSO
NaV1.7 F1748A and Y1755A = assay: Voltage clamp of NaV1.7 local anesthetic binding site mutations; type: cell-based, human; settings: vs WT NaV1.7
[4] = biological target: NaV1.7 S969A:D1761A double mutant (Homo sapiens, UniProt Q15858, E1761A/S969A); type: cell-based; settings: read-out: IC50 of INa inhibition, S969A:D1761A double mutant channels
[5] = test system: NaV1.7 S969A:D1761A double mutant; type: cell-based, human
NaV1.7 D1458A = NaV1.7 D1458A (Homo sapiens, UniProt Q15858, D1458A); assay: Voltage clamp of NaV1.7 alanine substitution in domain III; type: cell-based; settings: vs WT NaV1.7
DRG action potentials = assay: Current clamp recording of cultured DRG neuron action potentials; type: cell-based, mouse
[6] = test system: NaV1.7 DII S969A and DIV D1761A; type: cell-based, human; settings: vs WT NaV1.7
[7] = test system: knee hyperalgesia in mice after DMM surgery; settings: 20 mg/kg, ~0.85M, ref Miller et al., 2018; cited from earlier work

human NaV1.7, sequence (Q15858 whole entry): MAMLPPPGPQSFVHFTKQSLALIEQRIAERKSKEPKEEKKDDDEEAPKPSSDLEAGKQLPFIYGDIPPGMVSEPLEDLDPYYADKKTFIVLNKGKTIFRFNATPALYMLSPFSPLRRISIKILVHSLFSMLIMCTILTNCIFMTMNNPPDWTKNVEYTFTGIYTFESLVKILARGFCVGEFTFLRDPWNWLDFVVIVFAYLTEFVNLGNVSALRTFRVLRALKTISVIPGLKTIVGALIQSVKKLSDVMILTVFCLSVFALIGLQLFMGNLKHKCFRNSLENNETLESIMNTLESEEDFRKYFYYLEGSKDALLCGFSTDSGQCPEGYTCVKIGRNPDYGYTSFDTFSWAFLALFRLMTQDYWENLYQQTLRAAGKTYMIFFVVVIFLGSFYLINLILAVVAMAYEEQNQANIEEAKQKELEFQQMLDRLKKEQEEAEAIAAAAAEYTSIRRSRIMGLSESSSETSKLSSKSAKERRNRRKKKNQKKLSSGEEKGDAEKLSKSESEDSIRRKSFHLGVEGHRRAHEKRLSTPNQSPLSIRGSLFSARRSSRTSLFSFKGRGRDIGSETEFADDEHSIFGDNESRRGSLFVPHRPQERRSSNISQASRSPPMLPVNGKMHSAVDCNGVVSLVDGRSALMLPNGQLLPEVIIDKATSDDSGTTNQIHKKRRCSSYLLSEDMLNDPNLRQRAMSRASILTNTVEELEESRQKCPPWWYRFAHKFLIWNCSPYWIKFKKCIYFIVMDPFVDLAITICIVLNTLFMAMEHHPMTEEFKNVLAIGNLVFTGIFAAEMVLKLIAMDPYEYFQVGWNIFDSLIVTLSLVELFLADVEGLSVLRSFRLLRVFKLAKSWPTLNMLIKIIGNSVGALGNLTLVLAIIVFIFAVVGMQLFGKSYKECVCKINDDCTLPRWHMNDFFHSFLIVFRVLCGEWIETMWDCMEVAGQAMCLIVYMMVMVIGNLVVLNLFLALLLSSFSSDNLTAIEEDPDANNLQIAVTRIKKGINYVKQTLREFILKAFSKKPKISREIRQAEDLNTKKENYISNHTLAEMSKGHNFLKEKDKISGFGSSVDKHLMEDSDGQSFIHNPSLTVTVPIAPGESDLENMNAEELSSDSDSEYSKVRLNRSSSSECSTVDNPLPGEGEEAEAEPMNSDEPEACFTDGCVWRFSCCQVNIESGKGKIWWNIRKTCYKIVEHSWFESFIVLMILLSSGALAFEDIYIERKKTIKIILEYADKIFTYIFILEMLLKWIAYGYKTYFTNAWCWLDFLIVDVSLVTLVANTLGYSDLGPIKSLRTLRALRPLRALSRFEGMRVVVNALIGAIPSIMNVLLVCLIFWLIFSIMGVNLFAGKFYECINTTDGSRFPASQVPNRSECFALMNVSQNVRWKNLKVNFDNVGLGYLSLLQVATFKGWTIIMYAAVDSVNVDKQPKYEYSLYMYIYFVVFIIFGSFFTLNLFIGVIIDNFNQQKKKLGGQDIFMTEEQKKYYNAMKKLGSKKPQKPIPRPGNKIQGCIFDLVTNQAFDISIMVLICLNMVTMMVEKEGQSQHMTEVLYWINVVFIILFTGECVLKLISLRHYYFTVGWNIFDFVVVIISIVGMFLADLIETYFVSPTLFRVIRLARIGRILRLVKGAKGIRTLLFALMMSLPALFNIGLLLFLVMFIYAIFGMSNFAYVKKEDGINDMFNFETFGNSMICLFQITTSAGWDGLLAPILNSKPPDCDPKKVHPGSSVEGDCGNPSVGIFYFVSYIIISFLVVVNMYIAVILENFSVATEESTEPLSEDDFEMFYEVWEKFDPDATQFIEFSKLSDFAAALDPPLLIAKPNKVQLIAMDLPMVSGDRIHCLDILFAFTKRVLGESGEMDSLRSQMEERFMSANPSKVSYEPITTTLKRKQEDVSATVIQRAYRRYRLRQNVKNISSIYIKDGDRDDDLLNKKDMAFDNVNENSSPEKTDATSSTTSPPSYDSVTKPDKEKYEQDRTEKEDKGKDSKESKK
human NaV1.7, sequence (Q07699 19-218 partner): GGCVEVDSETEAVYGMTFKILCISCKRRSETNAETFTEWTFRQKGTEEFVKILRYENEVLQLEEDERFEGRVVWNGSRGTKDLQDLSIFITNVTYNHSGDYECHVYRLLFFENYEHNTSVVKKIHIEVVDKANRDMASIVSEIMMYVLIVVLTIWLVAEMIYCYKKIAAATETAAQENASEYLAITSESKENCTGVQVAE
human NaV1.7 tamoxifen receptor, sequence (Q15858 whole entry): as the sequence (Q15858 whole entry) above
NaV1.7 S969A:D1761A double mutant (Homo sapiens, UniProt Q15858, E1761A/S969A), sequence (Q15858 whole entry S969A/E1761A): as the sequence (Q15858 whole entry) above, with S969A, E1761A counted along it
NaV1.7 S969A:D1761A double mutant (Homo sapiens, UniProt Q15858, E1761A/S969A), sequence (Q07699 19-218 partner): as the sequence (Q07699 19-218 partner) above
NaV1.7 D1458A, sequence (Q15858 whole entry D1458A, the tested form may be a part): as the sequence (Q15858 whole entry) above, with D1458A counted along it
NaV1.7 D1458A, sequence (Q07699 19-218 partner): as the sequence (Q07699 19-218 partner) above

Compound: 4-hydroxy-N-desmethyl benzophenone [4OH-ND-BP]
binding to NaV1.7 (in words) [1]: specific binding

binding to NaV1.7 (in words) [1]: specific binding
Compound: O=C(c1ccccc1)c1ccc(O)cc1 [4OH-BP, 4-hydroxy benzophenone]

Hill slope coefficient of NaV1.7 INa inhibition (human NaV1.7): 1.9
Compound: CC/C(=C(\c1ccc(O)cc1)c1ccc(OCCN(C)C)cc1)c1ccccc1 [4OH-Tam, 4-hydroxy tamoxifen]
inhibition of DRG neuron INa (in words) [2]: inhibit DRG neuron INa

Compound: C=C(C)[C@@H]1CCC(C)=C[C@H]1c1c(O)cc(CCCCC)cc1O [CBD, cannabidiol, reference compound]
knee hyperalgesia vs vehicle, 30 minutes after injection ([3]; 4 weeks after DMM): effectively inhibited knee hyperalgesia
knee withdrawal threshold vs vehicle through 3 hours ([3]; 4 weeks after DMM): remained elevated compared to vehicle control

Compound: CC/C(=C(\c1ccccc1)c1ccc(OCCNC)cc1)c1ccccc1 [ND-Tam, N-desmethyl tamoxifen]
change in ND-Tam potency (NaV1.7 F1748A and Y1755A): little change
IC50 [4]: 36000 nM
potency reduction compared to WT NaV1.7 [5]: more than 21 times
change in potency or slope (NaV1.7 D1458A): no change in potency or slope
area under the curve analysis of the first 3.5 hours post injection ([3]; 0.5 μM, after 3rd daily injection, compared to lidocaine or vehicle): superior efficacy
knee hyperalgesia vs vehicle ([3]; 50 μM (~0.002 mg/kg) intra-articular, vehicle 50% EtOH, 4 weeks after DMM, 30 minutes after injection): rapidly inhibited knee hyperalgesia pain; also recorded: provided relief from hyperalgesia
knee hyperalgesia vs vehicle, 30 minutes after injection ([3]; 4 weeks after DMM): effectively inhibited knee hyperalgesia
knee withdrawal threshold vs vehicle through 3 hours ([3]; 4 weeks after DMM): remained elevated compared to vehicle control
Hill slope coefficient of NaV1.7 INa inhibition (human NaV1.7): 2.2
IC50 (human NaV1.7; read-out: IC50 of INa inhibition, WT NaV1.7): 1700 nM
inhibition of DRG neuron INa (in words) [2]: inhibit DRG neuron INa
frequency dependence of DRG INa inhibition ([2]; 300 nM at 0.1, 10 and 20 Hz): enhanced current inhibition at greater depolarization frequencies
block of the total INa ([2]; 1 μM): ≈ 45%
change in half-maximal activation of conductance (GV1/2) ([2]; 1 μM): no change
voltage-dependence of inactivation after drug treatment ([2]; 1 μM): −51.9 ± 0.4 mV
half-maximal conductance-voltage relationship (V1/2) ([2]; 1 μM ND-Tam conditions): −37.7 ± 0.4 mV
IC50 ([2]; −40 mV holding potential): 3.9 nM
IC50 ([2]; −60 mV holding potential): 112 nM
INa that did not recover after removing drug from the bath ([2]; waiting 5 minutes after removal): 86 ± 5%
impact on the resting membrane potential (DRG action potentials; 100 nM, spontaneously firing neurons): insignificant impact
reduction of the frequency of spontaneous action potentials (DRG action potentials; 100 nM, three-minute extracellular application, no current injected): 91%
inhibition of action potential frequency and peak amplitude after washout (DRG action potentials; control saline for 2 minutes after drug): persistent
reduced potency of INa inhibition [6]: 3–7 times

binding to NaV1.7 (in words) [1]: specific binding
Compound: CNCCOc1ccccc1 [NM2P, N-methyl 2 phenoxyethanamine]

Compound: CCN(CC)CC(=O)Nc1c(C)cccc1C [lidocaine, reference compound]
knee hyperalgesia vs vehicle, 30 minutes after injection ([3]; 4 weeks after DMM): effectively inhibited knee hyperalgesia
knee withdrawal threshold vs vehicle through 3 hours ([3]; 4 weeks after DMM): remained elevated compared to vehicle control
knee hyperalgesia after local injection of a high dose [7]: able to acutely reverse knee hyperalgesia
